In ChEMBL document CHEMBL1201862, “PubChem BioAssay data set” (2004):
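Tested at 5 concentrations; 48 h exposure; 96-well plates; endpoints linearly interpolated, else capped at highest concentration. Abbreviation: GI50, concentration required for 50% inhibition of growth.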 Active and inactive are the calls of the source. Rule as the data show it: active = GI50 up to about 1.1 µM and inactive = higher.

Tests used:
Assay in all cases: growth of human tumour cells (NCI), 48 h
SNB-19 = tested on: SNB-19
HCC 2998 = tested on: HCC 2998
OVCAR-5 = tested on: OVCAR-5
SNB-75 = tested on: SNB-75
HOP-92 = tested on: HOP-92
786-0 = tested on: 786-0
UACC-257 = tested on: UACC-257
SN12C = tested on: SN12C
SF-539 = tested on: SF-539
U-251 = tested on: U-251
RPMI-8226 = tested on: RPMI-8226
ACHN = tested on: ACHN
MDA-MB-231 = tested on: MDA-MB-231
NCI/ADR-RES = tested on: NCI/ADR-RES
CCRF-CEM = tested on: CCRF-CEM
MCF7 = tested on: MCF7
NCI-H522 = tested on: NCI-H522
NCI-H23 = tested on: NCI-H23
PC-3 = tested on: PC-3
LOX IMVI = tested on: LOX IMVI
BT-549 = tested on: BT-549
K562 = tested on: K562
HL-60 = tested on: HL-60
SF-268 = tested on: SF-268
MDA-N = tested on: MDA-N
KM12 = tested on: KM12
HT-29 = tested on: HT-29
SK-OV-3 = tested on: SK-OV-3
HCT-116 = tested on: HCT-116
SK-MEL-28 = tested on: SK-MEL-28
UO-31 = tested on: UO-31
SK-MEL-2 = tested on: SK-MEL-2
SK-MEL-5 = tested on: SK-MEL-5
M14 = tested on: M14
NCI-H460 = tested on: NCI-H460
MOLT-4 = tested on: MOLT-4
EKVX = tested on: EKVX
DU-145 = tested on: DU-145
CAKI-1 = tested on: CAKI-1
UACC-62 = tested on: UACC-62
RXF 393 = tested on: RXF 393
A549 = tested on: A549
HOP-62 = tested on: HOP-62
IGROV-1 = tested on: IGROV-1
HCT-15 = tested on: HCT-15
Hs-578T = tested on: Hs-578T
COLO 205 = tested on: COLO 205
SR = tested on: SR
SW-620 = tested on: SW-620
OVCAR-8 = tested on: OVCAR-8
OVCAR-3 = tested on: OVCAR-3
OVCAR-4 = tested on: OVCAR-4
MDA-MB-435 = tested on: MDA-MB-435
SF-295 = tested on: SF-295
TK-10 = tested on: TK-10

CC(=O)O[C@H]1C(=O)[C@]2(C)[C@@H](OC(=O)OCC(O)CO)C[C@H]3OC[C@@]3(OC(C)=O)[C@H]2[C@H](OC(=O)c2ccccc2)[C@]2(O)C[C@H](OC(=O)[C@H](O)[C@@H](NC(=O)c3ccccc3)c3ccccc3)C(C)=C1C2(C)C (stereo not given in full) [PACLITAXEL CERIBATE]
GI50 (SNB-19): < 0.01 µM (active) | GI50 (HCC 2998): < 0.01 µM (active) | GI50 (OVCAR-5): < 0.01 µM (active) | GI50 (SNB-75): < 0.01 µM (active) | GI50 (HOP-92): 22.4 µM (inactive) | GI50 (786-0): < 0.01 µM (active) | GI50 (UACC-257): < 0.01 µM (active) | GI50 (SN12C): < 0.01 µM (active) | GI50 (SF-539): < 0.01 µM (active) | GI50 (U-251): < 0.01 µM (active) | GI50 (RPMI-8226): < 0.01 µM (active) | GI50 (ACHN): 11.1 µM (inactive) | GI50 (MDA-MB-231): < 0.01 µM (active) | GI50 (NCI/ADR-RES): 1.1 µM (active) | GI50 (CCRF-CEM): < 0.01 µM (active) | GI50 (MCF7): < 0.01 µM (active) | GI50 (NCI-H522): < 0.01 µM (active) | GI50 (NCI-H23): < 0.01 µM (active) | GI50 (PC-3): < 0.01 µM (active) | GI50 (LOX IMVI): < 0.01 µM (active) | GI50 (BT-549): < 0.0147 µM (active) | GI50 (K562): < 0.01 µM (active) | GI50 (HL-60): < 0.01 µM (active) | GI50 (SF-268): < 0.01 µM (active) | GI50 (MDA-N): < 0.01 µM (active) | GI50 (KM12): < 0.01 µM (active) | GI50 (HT-29): < 0.01 µM (active) | GI50 (SK-OV-3): < 0.01 µM (active) | GI50 (HCT-116): < 0.01 µM (active) | GI50 (SK-MEL-28): 14.5 µM (inactive) | GI50 (UO-31): 0.601 µM (active) | GI50 (SK-MEL-2): < 0.01 µM (active) | GI50 (SK-MEL-5): < 0.01 µM (active) | GI50 (M14): < 0.01 µM (active) | GI50 (NCI-H460): < 0.01 µM (active) | GI50 (MOLT-4): < 0.01 µM (active) | GI50 (EKVX): 0.0387 µM (active) | GI50 (DU-145): < 0.01 µM (active) | GI50 (CAKI-1): 0.893 µM (active) | GI50 (UACC-62): < 0.01 µM (active) | GI50 (RXF 393): < 0.01 µM (active) | GI50 (A549): < 0.01 µM (active) | GI50 (HOP-62): < 0.01 µM (active) | GI50 (IGROV-1): < 0.01 µM (active) | GI50 (HCT-15): 0.143 µM | GI50 (Hs-578T): < 0.01 µM (active) | GI50 (COLO 205): < 0.01 µM (active) | GI50 (SR): < 0.01 µM (active) | GI50 (SW-620): < 0.01 µM (active) | GI50 (OVCAR-8): < 0.01 µM (active) | GI50 (OVCAR-3): < 0.01 µM (active) | GI50 (OVCAR-4): 17 µM (inactive) | GI50 (MDA-MB-435): < 0.01 µM (active) | GI50 (SF-295): < 0.01 µM (active) | GI50 (TK-10): 0.0875 µM (active)
